Measured values as given in EP0174114A1, “Platinum complexes of ascorbic acid and ascorbic acid analogs” (priority 1984, dated 1986).
Values joined by “and” are separate entries in the source; they are usually repeats but may differ in a detail not shown here. Identical values can stand only once.

System: S180 ascites
Assay: Screening for antitumor activity against S180 ascites (increase in life span, survivors)
Type: in vivo, female CFW Swiss mice
Protocol: The various Pt ascorbate analogs were tested for antitumor activity against S180 ascites in female CFW Swiss mice by the following procedure.
CFW mice, averaging 20 g, are immediately inspected and placed in newly prepared cages. On day zero the mice are inoculated with 0.2 ml of a freshly prepared saline suspension (0.15 M NaCl) containing […], or a total of 2 x 10^6 cells. This inoculum is freshly prepared using "transfer" mice which have been injected with tumor cells the previous week. This inoculum is the end product of a series of steps which involve (1) the removal of the cells from the peritoneal cavity of the sacrificed transfer mouse, (2) alternate centrifugation-washing (2-3 times with cold saline) to remove occasional blood and other undesirable components, and finally (3) dilution (1:3) of the packed cell volume with saline (the final centrifugation being carried out at 1,000 rpm for 2 min). A cell count is made on a 2,000--fold dilution of this 1:3 suspension by means of a Coulter Counter. A final dilution to 1 x 10^7 cells/ml is made based on the averaged count. On day 1, solutions of the test compounds are prepared and the mice injected, with each mouse of a set of six being injected with the same test compound at the same dose level. Also, on this day, two types of controls (6 mice/set) are employed: (1) Normal (1 set): 0.5 ml of the solvent medium used for the test compound, and (2) Positive control (1 set): a known anti-tumor agent (cis-[Pt(NH3)2cI2] in saline at 8 mg/kg), used to test the response to the biological system.
The effectiveness of a compound is measured in terms of the increase in life span (% ILS) of the test animals relative to the controls (calculated from the day of tumor inoculation, day zero). In order to standardize the test data and permit intercomparisons to be made, the day of evaluation is arbitrarily taken as that day corresponding to twice the mean life-span (or average day of death) of the normal controls. This sets a practical upper limit of 100% on the ILS attainable. For calculation purposes, survivors on the day of evaluation are considered to have died on that day. The % ILS is formulated as: [formula]
ILS values above 50% represent significant activity; those above 75% represent excellent activity.

[1] = positive control of the same experiment, in saline at 8 mg/kg, 8 mg/kg
[2] = dose 10 mg/kg, administered in water
[3] = dose 20 mg/kg, administered in water
[4] = dose 40 mg/kg, administered in water
[5] = dose 80 mg/kg, administered in water
[6] = dose 160 mg/kg, administered in water
[7] = dose 320 mg/kg, administered in water
[8] = dose 5 mg/kg, administered in HNO3 ascorbic acid
[9] = dose 10 mg/kg, administered in HNO3 ascorbic acid
[10] = dose 20 mg/kg, administered in HNO3 ascorbic acid
[11] = dose 40 mg/kg, administered in HNO3 ascorbic acid
[12] = dose 80 mg/kg, administered in HNO3 ascorbic acid
[13] = dose 160 mg/kg, administered in HNO3 ascorbic acid
[14] = dose 320 mg/kg, administered in HNO3 ascorbic acid
[15] = dose 640 mg/kg, administered in HNO3 ascorbic acid
[16] = dose 640 mg/kg, administered in water
[17] = dose 800 mg/kg, administered in water
[18] = dose 1280 mg/kg, administered in water
[19] = dose 1920 mg/kg, administered in water
[20] = dose 5 mg/kg, administered in water
[21] = dose 5 mg/kg, administered in water, injected day 1, 5 mg/kg

Molecule	30-Day Survivors [2]	%ILS [2]	30-Day Survivors [3]	%ILS [3]	30-Day Survivors [4]	%ILS [4]	30-Day Survivors [5]	%ILS [5]	30-Day Survivors [6]	%ILS [6]	30-Day Survivors [7]	%ILS [7]	other results
N.N.[Cl][Pt][Cl] [Control, cis-[Pt(NH3)2cI2], reference compound]													Control 30-Day Survivors [1]: 6/6 and 1/6 and 4/6 and 3/6 and 2/6 and 0/6 and 5/6; Control %ILS [1]: 98% and 67% and 77% and 86% and 79% and 76% and 71% and 94%
Cis-[Pt(NH3)2(ascorbate)].2H2O [cis[Pt(NH3)2-(ascorbate)]]	0/6	-2%	0/6	6%	0/6	-6%	0/6	-1%	1/6	57%	3/6	79%	
Pt(cis-dach)(ascorbate)2·2H2O [[Pt(cis-dach)-(ascorbate)2]]	0/6	21%	0/6	12%	0/6	29%	0/6	60%	5/6	97%	1/6	68%	
Pt(ethylenediamine)(ascorbate) [listing 1 of 2 here]	0/6	4%	0/6	6%	0/6	22%	0/6	-2%	0/6	10%	0/6	24%	
Pt(ethylenediamine)(ascorbate) [listing 2 of 2 here]													activity against Sarcoma 180 ascites tumors in comparison with the unacidified complex (after contact with an aqueous acid solution): enhanced activity; 30-Day Survivors [8]: 0/6; %ILS [8]: 3%; 30-Day Survivors [9]: 0/6; %ILS [9]: 27%; 30-Day Survivors [10]: 0/6; %ILS [10]: 45%; 30-Day Survivors [11]: 3/6; %ILS [11]: 75%; 30-Day Survivors [12]: 3/6; %ILS [12]: 93%; 30-Day Survivors [13]: 2/6; %ILS [13]: 70%
Pt(trans-R,R-dach)(ascorbate) [Pt(trans-R,R-dach) (ascorbate) (Ex. 12)]													30-Day Survivors [10]: 3/6; %ILS [10]: 67%; 30-Day Survivors [11]: 3/6; %ILS [11]: 83%; 30-Day Survivors [12]: 4/6; %ILS [12]: 82%; 30-Day Survivors [13]: 0/6; %ILS [13]: -75%; 30-Day Survivors [14]: 0/6; %ILS [14]: -78%; 30-Day Survivors [15]: 0/6; %ILS [15]: -94%
[Pt (cis-dach) (isoascorbate) [[Pt(cis-dach)-(isoascorbate)]]	0/6	9%	0/6	6%	0/6	6%	0/6	17%	0/6	4% and 10%	0/6	12% and 22%	30-Day Survivors [16]: 2/6; %ILS [16]: 70%; 30-Day Survivors [17]: 2/6; %ILS [17]: 92%; 30-Day Survivors [18]: 3/6; %ILS [18]: 82%; 30-Day Survivors [19]: 0/6; %ILS [19]: 54%
[Pt(R,R-trans-dach)(ascorbate)].3H2O [[Pt(R,R-trans-dach)-(ascorbate)]]	0/6	9%	0/6	6%	0/6	9%	0/6	15% and 7%	0/6 and 0/5		3/6	65% and 55%	30-Day Survivors [16]: 5/6; %ILS [16]: 100%; 30-Day Survivors [17]: 5/6; %ILS [17]: 72%; 30-Day Survivors [18]: 6/6; %ILS [18]: 100%
[Pt(cis-dach)(ascorbate)].3H2O [[Pt(cis-dach)-(ascorbate)] (Isomer VI)]	0/6	23%	0/6	26%	0/6	22%	6/6 and 0/6		4/6 and 3/6	99% and 77%	5/6	93%	30-Day Survivors [20]: 0/6; %ILS [21]: 15%
[Pt(cis-dach)(ascorbate)].3H2O [[Pt(cis-dach)-(ascorbate)] (Isomer VII)]	0/6	20%	0/6	20%	0/6	43%	1/6 and 2/6	71% and 79%	5/6 and 3/6	98% and 69%	0/6	-59%	30-Day Survivors [20]: 0/6; %ILS [21]: 12%
